Assays:
[1] = tested on: BDCA2 bearing CHO cells; experiment: ADCC assay with NK cells; assay type: cell-based; conditions: NK:CHO 5:1, 4 hours
Description: The CHO cell line (EAG2456 T1F2 Clone 34.16.7) was used as the target cell. Expression level of BDCA2 on the surface of CHO cells was determined by FACS using an APC-labeled anti-BDCA2 mAb (clone AC144, Miltenyi). NK cells were used as the effector cells and were separated from whole blood by negative selection using the RosetteSep™ Human NK Cell Enrichment Cocktail (Stem Cells Technologies). After a 20 minute incubation with the cocktail at room temperature, NK cells were isolated by discontinuous gradient centrifugation over ficoll. […] The negative control consisted of wells containing CHO and NK cells without antibodies. NK and CHO cells lysed with Tx-100 were used to determine maximal killing. ADCC was evaluated using the Vybrant Cytotoxicity Assay kit (Invitrogen), following the manufacturer's instructions. The assay detects G6PD from damaged cells based on the G6PD-dependent reduction of resazurin which emits fluorescence at 590 nm after excitation at 530 nm. The ADCC assay depicted in FIG. 22 panel A was performed using high BDCA2 expressing CHO cells (panel C) while the ADCC assay in FIG. 22 panel B used CHO cells with lower BDCA2 expression (panel D).

[2] = tested on: CHO-BDCA2/FcεRIγ stable transfectant cells; experiment: CDC assay with rabbit serum complement; assay type: cell-based; conditions: 1 h at 37° C.
Description: CHO− BDCA2/FcεRIγ stable transfectant cells (EAG2456 T1F2 Clone 34.16.7) were seeded at 5×10^4 cells in 96 well Collagen black well plates and incubated at 37° C. for 48 hrs. […] Negative control consisted of wells containing CHO cells, rabbit serum complement, and PI, without antibodies. NK and CHO cells lysed with T-100×were used to determine maximal killing. The plates were read using Cytoflour Fluorescence plate reader (ex530/em645).

[3] = tested on: TLR9-induced IFNα production by PBMC; experiment: PBMC assay, TLR9-induced IFNα production; assay type: cell-based, human; conditions: 1 or 5 μM CpG-A, 18 hours
Description: PBMCs from heparinized venous blood of healthy donors were isolated by discontinuous gradient centrifugation over Ficoll, washed in PBS and re-suspended in complete culture medium (RPMI with 3% FBS). […] The plates were incubated overnight (18 hours) at 37° C., and the supernatants were collected for evaluation in IFNα ELISA assays (PBL InterferonSource). The assays were performed according to the manufacturer's protocol.
pDCs are the major producers of IFN in response to TLR7 and TLR9 stimulation. pDCs can produce thousand-fold more IFN than any other cell type. […] The plates were incubated overnight (18 hours) at 37° C. and 5% CO2. Supernatants were collected for evaluation in IFNα ELISA assays.

[4] = tested on: TLR3-induced IFNα production by PBMC; experiment: TLR3-induced IFNα production by PBMC; assay type: cell-based, human; conditions: 1 μM Poly I:C, BIIB059 10 μg/mL to 0.5 ng/ml
Description: This experiment was performed to determine whether other cell types triggered with different TLR ligands are still able to produce type I IFN even in the presence of BIIB059. […] PBMC from human healthy donors were stimulated with poly: IC, which is a TLR3 ligand that can potently induce type I IFN predominantly by monocytes. […] The plates were incubated overnight (18 hours) at 37° C. and 5% CO2. 200 μL of the supernatants were collected for evaluation of IFNα levels by ELISA.

[5] = tested on: type I IFN subtype transcription in pDCs; experiment: qPCR of type I IFN subtypes in Sm/RNP IC stimulated pDCs; assay type: cell-based, human; conditions: 10 μg/mL BIIB059, 16 hours
Description: Sm/RNP immune complexes (IC) were pre-formed by mixing sm-RNP from calf thymus and anti-RNP antibodies purified from sera of SLE patients for 30 minutes in serum-free medium. pDCs from human healthy donors were isolated using a two-step magnetic bead separation procedure (MACS kit, Miltenyi Biotec). […] The plates containing pDC were incubated for 16 hours at 37° C. and 5% CO2. pDC cells were collected and RNA from pDC was isolated for evaluation in qPCR reaction.

[6] = tested on: CD32a on the surface of pDCs; experiment: CD32 surface expression on isolated pDCs; assay type: cell-based, human
Description: Treatment with effector competent isotype control had no effect on CD32 surface levels (FIG. 46).
CD40 is a cell surface protein expressed on pDCs. An anti-CD40 antibody with a fully functional Fc has the ability to engage CD40 and bind CD32 on the surface of pDCs.

[7] = tested on: surface rat Clec4b2; experiment: Direct FACS binding to surface rat Clec4b2; conditions: 293E cells co-transfected with rat Clec4b2/FcεRIγ
Description: To determine whether the lead hu24F4 H4/L1 C95A mAb was capable of binding to surface rat Clec4b2, 293E cells were transiently co-transfected with an EGFP reporter expression vector (pEAG1458) and either human BDCA2/FcεRIγ vectors (pEAG2420 and pEAG2413) or rat Clec4b2/FcεRIγ vectors (pCN834 and pCN844) at 1:1:1 molar ratios. At 3 days post-transfection cells were harvested and stained with the lead hu24F4 H4/L1 C95A mAb in a dilution titration direct FACS binding assay, gating on live EGFP-positive cells.

Chain of surface rat Clec4b2 (as listed by the source): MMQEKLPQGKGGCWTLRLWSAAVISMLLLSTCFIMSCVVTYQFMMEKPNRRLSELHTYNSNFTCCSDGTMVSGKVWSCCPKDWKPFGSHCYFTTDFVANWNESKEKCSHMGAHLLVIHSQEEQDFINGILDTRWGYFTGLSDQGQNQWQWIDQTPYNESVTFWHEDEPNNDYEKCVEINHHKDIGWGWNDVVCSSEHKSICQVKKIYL
Chain of surface rat Clec4b2 (P20411 19-86 partner): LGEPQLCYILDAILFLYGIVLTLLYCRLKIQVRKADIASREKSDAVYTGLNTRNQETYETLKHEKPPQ

Substance: 24F4S: hu24F4 H4/L1 with C95S light chain; differs from BIIB059 by 1 amino acid residue
- killing of BDCA2 bearing CHO cells [1]: 100%
- CDC activity, in words [2]: cell killing by CDC similar to Triton lysis

Substance: BIIB059: humanized IgG1 anti-BDCA2 antibody, mature heavy chain SEQ ID NO: 4 and mature light chain SEQ ID NO: 3
- ADCC activity, in words [1]: identical ADCC activity
- average IC50, inhibition of TLR9-induced IFNα production ([3]; PBMC from SLE patients): 0.03 ± 0.01 µg/mL
- average IC50, inhibition of TLR9-induced IFNα production ([3]; PBMC from healthy donors): 0.04 ± 0.05 µg/mL
- TLR3-induced IFNα production [4]: did not impact
- transcript level of type I IFN subtypes [5]: inhibited the transcript level of all type I IFN subtypes tested
- CD32 MFI ([6]; 10 μg/mL, 1 hour at 4° C.): did not decrease the CD32 MFI
- CD32 on the cell surface of pDCs ([6]; 16 hours at 37° C.): able to induce the down-modulation of CD32
- binding to surface rat Clec4b2 [7]: no binding to surface rat Clec4b2 was detected
- CDC activity, in words [2]: cell killing by CDC similar to Triton lysis

Source: patent US20250304700A1, “ANTI-BLOOD DENDRITIC CELL ANTIGEN 2 ANTIBODIES AND USES THEREOF” (Biogen MA Inc., priority 2012, published 2025)
